Data from paper PMC7492691 (2020).

Columns and labels:
[1] = test system: poly(dAdT)2 (DNA, polymer) AT; experiment: ITC, two sets of sites fit; settings: Na+ (sodium cacodylate, I = 0.05 M); pH 5, 25 °C; site 1 of 2; polynucleotide concentration in phosphates; per base
[2] = test system: poly(rA)–poly(rU) (RNA, polymer) A/U; experiment: ITC, single set of sites fit; settings: Na+ (sodium cacodylate, I = 0.05 M); pH 5, 25 °C; polynucleotide concentration in phosphates; per base
[3] = test system: poly(dAdT)2 (DNA, polymer) AT; experiment: UV thermal denaturation, 260 nm; settings: Na+ (sodium cacodylate, I = 0.05 M); pH 5; r = [4]/[polynucleotide] = 0.1; per base
[4] = test system: poly(dAdT)2 (DNA, polymer) AT; experiment: UV-vis titration, Scatchard fit; settings: Na+ (sodium cacodylate, I = 0.05 M); pH 5, 25 °C; n fixed at 0.2; polynucleotide concentration in phosphates; per base
[5] = test system: poly(dGdC)2 (DNA, polymer) GC; experiment: UV-vis titration, Scatchard fit; settings: Na+ (sodium cacodylate, I = 0.05 M); pH 5, 25 °C; n fixed at 0.2; polynucleotide concentration in phosphates; per base
[6] = test system: poly(dA)–poly(dT) (DNA, polymer) A/T; experiment: UV thermal denaturation, 260 nm; settings: Na+ (sodium cacodylate, I = 0.05 M); pH 5; r = [4]/[polynucleotide] = 0.1; per base
[7] = test system: poly(dA)–poly(dT) (DNA, polymer) A/T; experiment: UV-vis titration, Scatchard fit; settings: Na+ (sodium cacodylate, I = 0.05 M); pH 5, 25 °C; n fixed at 0.2; polynucleotide concentration in phosphates; per base
[8] = test system: poly(rA)–poly(rU) (RNA, polymer) A/U; experiment: UV thermal denaturation, 260 nm; settings: Na+ (sodium cacodylate, I = 0.05 M); pH 5; r = [4]/[polynucleotide] = 0.2; per base
[9] = test system: poly(rA)–poly(rU) (RNA, polymer) A/U; experiment: UV-vis titration, Scatchard fit; settings: Na+ (sodium cacodylate, I = 0.05 M); pH 7, 25 °C; n fixed at 0.2; concentration in phosphates; log Ka 6.0 at pH 5; per base

log Ka1 [1]: 6.7 | log Ka1 [2]: 6.9 | ∆Tm [3]: 10.0 ± 0.5 °C | log Ka [4]: 5.8 | log Ka [5]: 7.2 | ∆Tm [6]: 10.5 ± 0.5 °C | log Ka [7]: 6.4 | ∆Tm [8]: 6.8 ± 0.5 °C | log Ka [9]: 4.5
Compound: N=C(N)NC(=O)c1ccc(C(=O)NCCCC[C@H](N)C(=O)NCCN2C(=O)c3ccc4c5c(ccc(c35)C2=O)C(=O)N(CCNC(=O)[C@@H](N)CCCCNC(=O)c2ccc(C(=O)NC(=N)N)[nH]2)C4=O)[nH]1
